This note sets out measurements from patent US11524966B1 (Valo Early Discovery, Inc., priority 2017, dated 2022).

pIC50: −log10 of the molar value. Some results are limits rather than exact numbers.

The test has as its target T1, USP28 (His-tagged USP28-FL-mammalian) (Homo sapiens, UniProt Q96RU2).
T1 construct: Expression of USP28 (1-1077)-TEV-6*His (pTT5 vector); made in house; host or cells: Expi293f cells (pTT5 vector)
T1 sequence (Q96RU2 1-1077): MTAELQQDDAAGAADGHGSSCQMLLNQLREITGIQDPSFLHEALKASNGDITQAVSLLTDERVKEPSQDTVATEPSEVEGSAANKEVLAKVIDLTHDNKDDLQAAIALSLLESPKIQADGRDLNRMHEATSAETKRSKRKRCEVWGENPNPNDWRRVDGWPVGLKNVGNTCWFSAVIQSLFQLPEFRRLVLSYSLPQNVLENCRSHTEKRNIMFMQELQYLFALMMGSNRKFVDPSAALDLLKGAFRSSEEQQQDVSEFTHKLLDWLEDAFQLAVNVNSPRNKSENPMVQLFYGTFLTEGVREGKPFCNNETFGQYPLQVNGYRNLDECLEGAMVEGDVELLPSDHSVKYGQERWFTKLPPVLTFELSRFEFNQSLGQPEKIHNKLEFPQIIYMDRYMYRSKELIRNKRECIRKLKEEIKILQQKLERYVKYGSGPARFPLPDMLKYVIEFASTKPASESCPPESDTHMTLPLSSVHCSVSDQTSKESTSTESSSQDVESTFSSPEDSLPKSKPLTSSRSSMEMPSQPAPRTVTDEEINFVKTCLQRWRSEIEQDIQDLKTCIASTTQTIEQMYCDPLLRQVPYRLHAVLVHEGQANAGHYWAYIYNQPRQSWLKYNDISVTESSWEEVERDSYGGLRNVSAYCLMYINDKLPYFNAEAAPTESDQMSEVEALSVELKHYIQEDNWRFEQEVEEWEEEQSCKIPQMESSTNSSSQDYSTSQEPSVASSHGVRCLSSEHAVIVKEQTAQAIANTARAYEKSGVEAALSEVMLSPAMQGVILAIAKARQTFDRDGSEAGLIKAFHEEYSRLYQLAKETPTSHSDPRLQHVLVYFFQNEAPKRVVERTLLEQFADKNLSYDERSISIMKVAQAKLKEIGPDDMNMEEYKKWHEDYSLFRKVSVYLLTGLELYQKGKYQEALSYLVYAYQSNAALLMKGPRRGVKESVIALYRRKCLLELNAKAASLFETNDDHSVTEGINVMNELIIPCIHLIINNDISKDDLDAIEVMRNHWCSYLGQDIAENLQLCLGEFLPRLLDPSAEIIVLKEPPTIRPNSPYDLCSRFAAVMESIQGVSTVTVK
As to the kind of experiment: Ubiquitin-Rhodamine 110 Assay for USP28 Activity, Example A-1(a). The format is biochemical. The conditions noted are these: Ubiquitin-Rhodamine 110 assay, Example A-1(a); read-out: USP28 A-1(a) IC50 range. The essentials:
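Full-length His-tagged USP28 (1-1077, Expi293F-expressed; […]) was preincubated 30 min with compound (25 μM–1.3 nM, 10-point 3-fold) in 20 mM Tris-HCl pH 8.0, 3 mM BME, 0.03% BGG, 0.01% Triton X-100. Ub-Rh110 (25 nM) was then added for 45 min at room temperature, stopped with citric acid, and read by fluorescence (485/535 nm).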
As a reminder, the pIC50 is the IC50 on a negative log10 scale, so that one unit is a factor of ten. As for `Cc1ccc2c(N)c(C(=O)N[C@H]3COc4cc(C5(C#N)CCS(=O)(=O)CC5)ccc4C3)sc2n1` [Example 34, 3-amino-N-[(3R)-7-(4-cyano-1,1-dioxo-1λ6-thian-4-yl)-3,4-dihydro-2H-1-benzopyran-3-yl]-6-methylthieno[2,3-b]pyridine-2-carboxamide], the pIC50 is 7.30 to 9.00.
With `Cc1ccc2c(N)c(C(=O)N[C@H]3COc4cc([C@H]5CCNC[C@@H]5F)ccc4C3)sc2n1` [Example 80, 3-amino-N-((R)-7-((3R,4R)-3-fluoropiperidin-4-yl)chroman-3-yl)-6-methylthieno[2,3-b]pyridine-2-carboxamide] the figure was 7.30 to 9.00; with `Cc1nc2sc(C(=O)N[C@H]3COc4c(F)c(N5CCNCC5)cc(F)c4C3)c(N)c2s1` [Example 56, (R)-6-amino-N-(5,8-difluoro-7-(piperazin-1-yl)chroman-3-yl)-2-methylthieno[2,3-d]thiazole-5-carboxamide], 7.30 to 9.00; with `Cc1cnc2c(N)c(C(=O)N[C@H]3COc4cc(N5CCNCC5)ncc4C3)sc2n1` [Example 71, (R)-7-amino-3-methyl-N-(7-(piperazin-1-yl)-3,4-dihydro-2H-pyrano[3,2-c]pyridin-3-yl)thieno[2,3-b]pyrazine-6-carboxamide], 6.70 to 7.30.
Turning to `Cc1ccc2c(N)c(C(=O)N[C@H]3COc4cc(N5C[C@H]6CC[C@@H]5CN6)ncc4C3)sc2n1` [Example 76, N-((R)-7-((1 R,4R)-2,5-diazabicyclo[2.2.2]octan-2-yl)-3,4-dihydro-2H-pyrano[3,2-c]pyridin-3-yl)-3-amino-6-methylthieno[2,3-b]pyridine-2-carboxamide], the negative-log IC50 (pIC50) is 7.30 to 9.00.
The value for `CO[C@@H]1CN(c2cc3c(cc2F)C[C@@H](NC(=O)c2sc4nc(C)ccc4c2N)CO3)C[C@H]1N` [Example 93, 3-amino-N-[(3R)-7-[(3R,4R)-3-amino-4-methoxypyrrolidin-1-yl]-6-fluoro-3,4-dihydro-2H-1-benzopyran-3-yl]-6-methylthieno[2,3-b]pyridine-2-carboxamide] was 6.70 to 7.30.
With `Cc1cnc2c(N)c(C(=O)N[C@H]3CCc4nc(N5CC6CC(C5)N6)ccc4C3)sc2n1` [Example 23-11, 7-amino-N-[(6S)-2-{3,6-diazabicyclo[3.1.1]heptan-3-yl}-5,6,7,8-tetrahydroquinolin-6-yl]-3-methylthieno[2,3-b]pyrazine-6-carboxamide] the figure was 5.70 to 6.70; with `Cc1ccc2c(N)c(C(=O)N[C@H]3CCc4nc(N5C[C@@H](N)[C@H](C(F)F)C5)ccc4C3)sc2n1` [Example 25, 3-Amino-N-[(6S)-2-[(3S,4R)-3-amino-4-(difluoromethyl)pyrrolidin-1-yl]-5,6,7,8-tetrahydroquinolin-6-yl]-6-methylthieno[2,3-b]pyridine-2-carboxamide], 6.70 to 7.30.
With `Cc1nc2sc(C(=O)N[C@H]3COc4cc(N5CC6CCC(C5)N6)c(F)cc4C3)c(N)c2s1` [Example 47, N-((3R)-7-(3,8-diazabicyclo[3.2.1]octan-3-yl)-6-fluorochroman-3-yl)-6-amino-2-methylthieno[2,3-d]thiazole-5-carboxamide] the figure was 5.70 to 6.70; with `Cc1ccc2c(N)c(C(=O)N[C@@H]3COc4cc(N5C[C@H]6CNC[C@@H]6C5)ccc4C3)sc2n1` [Example 44, 3-amino-N-((S)-7-((3aR,6aR)-hexahydropyrrolo[3,4-c]pyrrol-2(1H)-yl)chroman-3-yl)-6-methylthieno[2,3-b]pyridine-2-carboxamide], below 5.70; with `Cc1cc(C)c2c(N)c(C(=O)N[C@H]3CCc4nc(N5CCNCC5)ccc4C3)sc2n1` [Example 23-14, 3-amino-4,6-dimethyl-N-[(6S)-2-(piperazin-1-yl)-5,6,7,8-tetrahydroquinolin-6-yl]thieno[2,3-b]pyridine-2-carboxamide], 7.30 to 9.00.
`Cc1ccc2c(N)c(C(=O)N[C@H]3COc4cc(N5CC6CNCC(C5)O6)c(F)c(F)c4C3)sc2n1` [Example 79, N-((3R)-7-(9-oxa-3,7-diazabicyclo[3.3.1]nonan-3-yl)-5,6-difluorochroman-3-yl)-3-amino-6-methylthieno[2,3-b]pyridine-2-carboxamide]: the negative-log IC50 (pIC50) is 7.30 to 9.00.
With `Cc1ccc2c(N)c(C(=O)N[C@H]3CCc4nc(N5CCNCC5)c(F)cc4C3)sc2n1` (single isomer, unassigned) [Example 30-1] the figure was 7.30 to 9.00; with `CCn1ccc2cc(C(=O)N[C@H]3COc4c(F)c([C@@H]5CCNC[C@@H]5O)cc(F)c4C3)nnc21` [Example 84, N-((R)-5,8-difluoro-7-((3R,4S)-3-hydroxypiperidin-4-yl)chroman-3-yl)-7-ethyl-7H-pyrrolo[2,3-c]pyridazine-3-carboxamide], 5.70 to 6.70.
With `Cc1ccc2c(N)c(C(=O)N[C@@H]3COc4cc(N5CCNCC5)cc(Cl)c4C3)sc2n1` [Example 49, (S)-3-amino-N-(5-chloro-7-(piperazin-1-yl)chroman-3-yl)-6-methylthieno[2,3-b]pyridine-2-carboxamide] the figure was 5.70 to 6.70; with `O=C(N[C@H]1COc2cc(N3CCNCC3)ccc2C1)c1cnc2c(ccn2Cc2ccccc2)c1` [Example 59, (R)-1-benzyl-N-(7-(piperazin-1-yl)chroman-3-yl)-1H-pyrrolo[2,3-b]pyridine-5-carboxamide], 7.30 to 9.00; with `Cc1ccc2c(N)c(C(=O)N[C@H]3COc4cc(N5CCNCC5)cc(Cl)c4C3)sc2n1` [Example 48, (R)-3-amino-N-(5-chloro-7-(piperazin-1-yl)chroman-3-yl)-6-methylthieno[2,3-b]pyridine-2-carboxamide], 7.30 to 9.00.
With `Cc1ccc2c(N)c(C(=O)N[C@H]3CCc4nc(N5CCNCC5)cc(F)c4C3)sc2n1` [Example 23-17, 3-amino-N-[(6S)-4-fluoro-2-(piperazin-1-yl)-5,6,7,8-tetrahydroquinolin-6-yl]-6-methylthieno[2,3-b]pyridine-2-carboxamide] the figure was 7.30 to 9.00.
In the case of `Cc1ccc2c(N)c(C(=O)N[C@H]3COc4cc(N5C[C@@H]6CCNC[C@@H]65)ccc4C3)sc2n1` (single isomer, unassigned) [Example 33-3], the pIC50 was 7.30 to 9.00.
The value for `C[C@@H](Nc1ccc(C(=O)N[C@H]2COc3cc(N4CCNCC4)ccc3C2)cn1)c1ccccc1` [Example 54, 6-(((R)-1-phenylethyl)amino)-N-((R)-7-(piperazin-1-yl)chroman-3-yl)nicotinamide] was below 5.70; that for `Cc1cnc2c(N)c(C(=O)N[C@H]3COc4cc(N5CCNCC5)c(C#N)c(F)c4C3)sc2n1` [Example 67, (R)-7-amino-N-(6-cyano-5-fluoro-7-(piperazin-1-yl)chroman-3-yl)-3-methylthieno[2,3-b]pyrazine-6-carboxamide] was 7.30 to 9.00.
Consider `Cc1ccc2c(N)c(C(=O)N[C@@H]3Cc4ccc(N5CCNCC5)nc4C4(CC4)C3)sc2n1` (single isomer, unassigned) [Example 31-3, 3-amino-6-methyl-N-[(6′S)-2-(piperazin-1-yl)-6′,7′-dihydro-5′H-spiro[cyclopropane-1,8′-quinoline]-6′-yl]thieno[2,3-b]pyridine-2-carboxamide], for which the negative-log IC50 (pIC50) is 6.70 to 7.30.
On to `Cc1ccc2c(N)c(C(=O)N[C@H]3COc4cc(N5C[C@H]6CCNC[C@H]65)ccc4C3)sc2n1` (single isomer, unassigned) [Example 33-4], for which the pIC50 was 7.30 to 9.00.
